Results taken from patent publication US20050019746A1, “Apoptosis-related kinase/GPCRs” (EiRx Therapeutics Limited, priority 2003, published 2005).

Tests used:
Format in all cases: cell-based, human
[1] = system: SKOV3 cells; assay: 10-14 day Clonagenicity Assay (MTT), SKOV3; details: for percentage survival relative to the missense, n = 1: independent experiment n = 1, dilution point of maximum toxicity; for percentage survival relative to the missense, n = 3: independent experiment n = 3, dilution point of maximum toxicity; for percentage survival relative to the missense, n = 2: independent experiment n = 2, dilution point of maximum toxicity
In short: (§1)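 siRNA knockdown at 2 μg/ml (4 h transfection) in serially halved seed densities; cells grown 10-14 d at 37 °C, 5% CO2, then counted by MTT conversion. Values: mean % survival vs missense oligo at the dilution giving maximum toxicity.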

[2] = system: DU145 cells; assay: 10-14 day Clonagenicity Assay (MTT), DU145; details: for percentage survival relative to the missense, n = 3: independent experiment n = 3, dilution point of maximum toxicity; for percentage survival relative to the missense, n = 1: independent experiment n = 1, dilution point of maximum toxicity; for percentage survival relative to the missense, n = 2: independent experiment n = 2, dilution point of maximum toxicity
In short: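 Seeded at cell-line-optimised densities, 1:2 serial dilution over six columns; siRNA oligos transfected at 2 μg/ml for 4 h, media changed overnight and at 24 h, then grown 10-14 days at 37° C before MTT read-out. Value is mean % viability vs missense control at the maximum-toxicity dilution, 3 experiments.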

[3] = system: HCT15 cells; assay: 10-14 day Clonagenicity Assay (MTT), HCT15; details: for percentage survival relative to the missense, n = 1: independent experiment n = 1, dilution point of maximum toxicity; for percentage survival relative to the missense, n = 2: independent experiment n = 2, dilution point of maximum toxicity
In short: as §1

[4] = system: A549 cells; assay: 10-14 day Clonagenicity Assay (MTT), A549; details: for percentage survival relative to the missense, n = 1: independent experiment n = 1, dilution point of maximum toxicity; for percentage survival relative to the missense, n = 2: independent experiment n = 2, dilution point of maximum toxicity; for percentage survival relative to the missense, n = 3: independent experiment n = 3, dilution point of maximum toxicity
In short: as §1

[5] = system: U251 cells; assay: 10-14 day Clonagenicity Assay (MTT), U251; details: U251, clonagenicity assay, dilution point of maximum toxicity; for percentage survival relative to the missense, n = 1: independent experiment n = 1; for percentage survival relative to the missense, n = 2: independent experiment n = 2; for percentage survival relative to the missense, n = 3: independent experiment n = 3
In short: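 U251 cells were seeded in a 96-well plate, left overnight to adhere at 37° C. in humidified 5% CO2, and serially diluted 1 in 2 from Column 1 to 6. They were transfected for 4 hrs with siRNA oligomers at 2 μg/ml, given fresh medium, changed again at 24 hrs, then incubated 10-14 days with weekly renewal. MTT conversion measured cell number; survival was expressed versus missense control.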

[6] = system: A498 cells; assay: 10-14 day Clonagenicity Assay (MTT), A498; details: for percentage survival relative to the missense, n = 1: independent experiment n = 1, dilution point of maximum toxicity; for percentage survival relative to the missense, n = 3: independent experiment n = 3, dilution point of maximum toxicity
In short: as §1

| Substance | percentage survival relative to the missense, n = 1 [1] | percentage survival relative to the missense, n = 3 [1] | percentage survival relative to the missense, n = 3 [2] | percentage survival relative to the missense, n = 1 [3] | percentage survival relative to the missense, n = 2 [3] | percentage survival relative to the missense, n = 1 [4] | percentage survival relative to the missense, n = 1 [5] | percentage survival relative to the missense, n = 2 [5] | percentage survival relative to the missense, n = 3 [5] | percentage survival relative to the missense, n = 1 [6] | percentage survival relative to the missense, n = 3 [6] | percentage survival relative to the missense, n = 2 [1] | percentage survival relative to the missense, n = 1 [2] | percentage survival relative to the missense, n = 2 [2] | percentage survival relative to the missense, n = 2 [4] | percentage survival relative to the missense, n = 3 [4] |
| --- | --- | --- | --- | --- | --- | --- | --- | --- | --- | --- | --- | --- | --- | --- | --- | --- |
| siRNA MAPKK5: sense GAGGACAGGUUAAGCUGUGtt, antisense CACAGCUUAACCUGUCCUCtt (sense GAGGACAGGUUAAGCUGUGTT; antisense CACAGCUUAACCUGUCCUCTT; chemistry not given here) | 18.5% | 53.7% | 13.6% | 65.3% | 61.2% | 48.5% | 44.8% | 51.4% | 12.4% | 10.2% | 6.9% |  |  |  |  |  |
| siRNA NTKL: siRNA duplex, sense UGUGGAGCUGAUGAAGCACtt, antisense GUGCUUCAUCAGCUCCACAtt; same in Tables 9 and 11 (sense UGUGGAGCUGAUGAAGCACTT; antisense GUGCUUCAUCAGCUCCACATT; chemistry not given here) | 6.2% | 14.9% | 25.4% | 59.5% | 55.3% | 18.9% | 9.5% | 20.9% | 17.1% | 12.3% | 7.2% | 18.8% | 27.8% | 35.1% | 45.3% | 28.1% |
| siRNA Survivin: positive control siRNA, sense GAACUGGCCCUUCUUGGAGtt, antisense CUCCAAGAAGGGCCAGUUCtt (sense GAACUGGCCCUUCUUGGAGTT; antisense CUCCAAGAAGGGCCAGUUCTT; chemistry not given here) [reference compound] | 43.9% | 85.7% | 91% | 71.3% | 44.5% | 28.5% | 45.9% | 64.6% | 76.4% | 35.9% | 75.9% | 90.8% | 102% | 61.8% | 62.4% | 67.3% |
| siRNA MKNK: sense UACAUGGCCCCUGAGGUAGtt, antisense CUACCUCAGGGGCCAUGUAtt (sense UACAUGGCCCCUGAGGUAGTT; antisense CUACCUCAGGGGCCAUGUATT; chemistry not given here) | 14% | 34.3% | 33.9% | 36% |  | 11.5% | 33.6% | 59.5% | 69% | 15.4% | 2.7% |  |  |  | 67.9% | 23.3% |
| siRNA PCTAIRE: sense GUCAGUGCCCACAAAGACUtt, antisense AGUCUUUGUGGGCACUGACtt (sense GUCAGUGCCCACAAAGACUTT; antisense AGUCUUUGUGGGCACUGACTT; chemistry not given here) | 68.6% |  |  |  |  |  | 24.2% | 42.7% | 1.6% | 24.9% | 48.4% |  |  |  |  |  |
| siRNA MPSK1: sense GGGUUAUGCCCACAGAGACtt, antisense GUCUCUGUGGGCAUAACCCtt (sense GGGUUAUGCCCACAGAGACTT; antisense GUCUCUGUGGGCAUAACCCTT; chemistry not given here) | 57.2% |  |  | 68.3% |  |  |  |  |  | 44.7% | 20.9% |  |  |  |  |  |
